# Measured values published in patent US10143201B2, “Fungicidal compositions” (Syngenta Crop Protection LLC, priority 2007, dated 2018).
# “And” between values parts separate entries of the source, which are not always exact repeats. Equal values may be shown once.
# Columns and labels:
# [1] = tested on: Cercospora arachidicola (syn. Mycosphaerella arachidis); experiment: Fungicidal action against Cercospora arachidicola (brown leaf spot of groundnut), microtiter growth inhibition; assay type: cell-based; conditions: compound alone
# Method: Example B8: Fungicidal Action Against Cercospora arachidicola (Syn. Mycosphaerella arachidis), Brown Leaf Spot of Groundnut (Peanut)
# (§1) Conidia of the fungus from cryogenic storage are directly mixed into nutrient broth (PDB potato dextrose broth). After placing a (DMSO) solution of the test compounds into a microtiter plate (96-well format) the nutrient broth containing the fungal spores is added. The test plates are incubated at 24 C and the inhibition of growth is evaluated after 7 days.
# Septoria tritici = experiment: Fungicidal action against Septoria tritici (leaf blotch), microtiter growth inhibition; assay type: cell-based; conditions: alone
# Method: Example B3: Fungicidal Action Against Septoria tritici (Leaf Blotch)
# as §1, with “24° C.” for “24 C”, “4” for “7”, “days. The expected fungicidal action is calculated according to the Colby method.” for “days.”
# Botrytis cinerea = experiment: Fungicidal action against Botrytis cinerea (gray mould), microtiter growth inhibition; assay type: cell-based; conditions: alone
# Method: Example B2: Fungicidal Action Against Botrytis cinerea (Gray Mould)
# as §1, with “24° C.” for “24 C”, “4” for “7”, “days. The expected fungicidal action is calculated according to the Colby method.” for “days.”
# Pyrenophora teres = experiment: Fungicidal action against Pyrenophora teres (net blotch), microtiter growth inhibition; assay type: cell-based
# Method: Example B6: Fungicidal Action Against Pyrenophora teres (Net Blotch)
# as §1, with “24° C.” for “24 C”, “4” for “7”, “days. The expected fungicidal action is calculated according to the Colby method.” for “days.”
# Alternaria solani = experiment: Fungicidal action against Alternaria solani (early blight tomato/potato), microtiter growth inhibition; assay type: cell-based; conditions: alone
# Method: Example B4: Fungicidal Action Against Alternaria solani (Early Blight Tomato/Potato)
# as §1, with “24° C.” for “24 C”, “3” for “7”, “days. The expected fungicidal action is calculated according to the Colby method.” for “days.”
# [2] = tested on: Colletotrichum lagenarium (syn. Glomerella lagenarium); experiment: Fungicidal action against Colletotrichum lagenarium (anthracnose of cucurbits), microtiter growth inhibition; assay type: cell-based; conditions: compound alone
# Method: as §1, with “Example B10: Fungicidal Action Against Colletotrichum lagenarium (Syn. Glomerella lagenarium), Anthracnose of Cucurbits Conidia” for “Conidia”, “3” for “7”
# [3] = tested on: Pseudocercosporella herpotrichoides (syn. Tapesia yallundae); experiment: Fungicidal action against Pseudocercosporella herpotrichoides (eye spot of cereals), microtiter growth inhibition; assay type: cell-based; conditions: alone
# Method: Example B5: Funicidal Action Against Pseudocercosporella herpotrichoides (Syn. Tapesia yallundae), Eye Spot of Cereals
# as §1, with “24° C.” for “24 C”, “4” for “7”, “days. The expected fungicidal action is calculated according to the Colby method.” for “days.”
# Gaeumannomyces graminis = experiment: Fungicidal action against Gaeumannomyces graminis (take-all of cereals), microtiter growth inhibition; assay type: cell-based; conditions: compound alone
# Method: Example B7: Fungicidal Action Against Gaeumannomyces graminis (Take-all of Cereals)
# as §1, with “Mycelial fragments” for “Conidia”, “4” for “7”
# Phakopsora pachyrhizi = experiment: Action against Asian soybean rust, leaf disc test; assay type: in vivo; conditions: 14 days after inoculation
# Method: Example B-1: Action Against Asian Soybean Rust (Phakopsora pachyrhizi)—Leaf Disc Test
# Whole soybean plants (variety brand Williams82) are treated with the recited active ingredients 4 weeks after planting. 1 day after spraying leaf disks are cut from the first trifoliate leaf. Five repetitions at each rate are conducted. The leaf disks are inoculated with Phakopsora pachyrhizi (Asian soybean rust) one day after treatment. Evaluation of the leaf disks is conducted fourteen days after inoculation and the mean percent infestation of the five repetitions is calculated. Standard EC100 formulations are used. The rates of the active ingredients used are given in Table B1 as g active ingredient (a.i.)/ha.
# [4] = tested on: Monopraphella nivalis (syn. Microdochium nivale, Fusarium nivale); experiment: Fungicidal action against Monopraphella nivalis (snow mould, foot rot of cereals), microtiter growth inhibition; assay type: cell-based; conditions: compound alone
# Method: Example B9: Fungicidal Action Against Monopraphella nivalis (Syn. Microdochium nivale, Fusarium nivale), Snow Mould, Foot Rot of Cereals
# as §1, with “4” for “7”
smiles,measurement,setting,value
Cn1cc(C(=O)Nc2cccc3c2C2CCC3C2=C(Cl)Cl)c(C(F)(F)F)n1 (centres unmarked),melting point,,183 to 188 °C and 179 to 181 °C
"Cn1cc(C(=O)Nc2cccc3c2C2CCC3C2=C(F)F)c(C(F)F)n1 (centres unmarked) [Compound A-1.2, 3-difluoromethyl-1-methyl-1H-pyrazole-4-carboxylic acid (9-difluoromethylidene-benzonorbornene-5-yl)amide]",% activity,[1]; 0.0156 ppm,0%
same,% activity,[1]; 0.0313 ppm,0%
same,% activity,[1]; 0.0625 ppm,0%
same,% activity,[1]; 0.1250 ppm,20%
same,% activity,[1]; 0.2500 ppm,70% and 50%
same,% activity,Septoria tritici; 0.0078 ppm,0%
same,% activity,Septoria tritici; 0.0156 ppm,0%
same,% activity,Septoria tritici; 0.1250 ppm,0%
same,% activity,Septoria tritici; 0.2500 ppm,20%
same,% activity,Septoria tritici; 0.5000 ppm,50%
same,% activity,Septoria tritici; 1.0000 ppm,70%
same,% activity,Botrytis cinerea; 0.0313 ppm,0%
same,% activity,Botrytis cinerea; 0.1250 ppm,20%
same,% activity,Botrytis cinerea; 0.2500 ppm,20%
same,% activity,Botrytis cinerea; 0.5000 ppm,20%
same,% activity,Botrytis cinerea; 1.0000 ppm,50%
same,% activity,Botrytis cinerea; 2.0000 ppm,70%
same,% activity,"Pyrenophora teres; 0.0078 ppm, alone",0%
same,% activity,"Pyrenophora teres; 0.0156 ppm, alone",0%
same,% activity,"Pyrenophora teres; 0.0313 ppm, alone",0%
same,% activity,"Pyrenophora teres; 0.1250 ppm, alone",20%
same,% activity,"Pyrenophora teres; 0.2500 ppm, alone",20%
same,% activity,"Pyrenophora teres; compound alone, 0.0313 ppm",0%
same,% activity,"Pyrenophora teres; compound alone, 0.1250 ppm",20%
same,% activity,"Pyrenophora teres; compound alone, 0.2500 ppm",20%
same,% activity,"Pyrenophora teres; compound alone, 0.5000 ppm",50%
same,% activity,"Pyrenophora teres; compound alone, 1.0000 ppm",50%
same,% activity,"Pyrenophora teres; compound alone, 2.0000 ppm",70%
same,% activity,Alternaria solani; 0.0313 ppm,0%
same,% activity,Alternaria solani; 0.1250 ppm,20%
same,% activity,Alternaria solani; 0.2500 ppm,50%
same,% activity,Alternaria solani; 0.5000 ppm,50%
same,% activity,[2]; 0.0313 ppm,0%
same,% activity,[2]; 0.0625 ppm,0%
same,% activity,[2]; 0.1250 ppm,0%
same,% activity,[2]; 0.5000 ppm,20%
same,% activity,[2]; 1.0000 ppm,50%
same,% activity,[3]; 0.0039 ppm,0%
same,% activity,[3]; 0.0078 ppm,0%
same,% activity,[3]; 0.0156 ppm,0%
same,% activity,[3]; 0.0313 ppm,0%
same,% activity,[3]; 0.0625 ppm,0%
same,% activity,[3]; 0.5000 ppm,70%
same,% activity,Gaeumannomyces graminis; 0.0156 ppm,0%
same,% activity,Gaeumannomyces graminis; 0.0313 ppm,0%
same,% activity,Gaeumannomyces graminis; 0.0625 ppm,0%
same,% activity,Gaeumannomyces graminis; 0.1250 ppm,0%
same,% activity,Gaeumannomyces graminis; 0.5000 ppm,70% and 90%
same,% Control of Phakopsora pachyrhizi,Phakopsora pachyrhizi; 31.25 g a.i./ha,39%
same,% Control of Phakopsora pachyrhizi,Phakopsora pachyrhizi; 62.5 g a.i./ha,54%
same,% Control of Phakopsora pachyrhizi,Phakopsora pachyrhizi; 125 g a.i./ha,44%
same,% Control of Phakopsora pachyrhizi,Phakopsora pachyrhizi; 250 g a.i./ha,94%
same,% activity,[4]; 1.0000 ppm,50%
same,% activity,[4]; 2.0000 ppm,70%
CC(C)C1CCC(Cc2ccc(Cl)cc2)C1(O)Cn1cncn1 (centres unmarked) [Ipconazole],inhibition at 0.125 ppm,"[2]; Colletotrichum orbiculare, 0.1250 ppm",20%
